Results as given in article PMC11656708, “PHP-Family Diesterase from Novosphingobium with Broad Specificity and High Catalytic Efficiency against Organophosphate Flame-Retardant Derived Diesters” (Biochemistry, 2024).
Read-outs that look alike come from different tables or passages of the source.

How the values were obtained:
Sb-PDE [1] = system: T1, Sb-PDE; format: biochemical, Sphingobium sp. TCM1
T1 construct: synthetic gene, recombinant, purified to homogeneity; trinuclear zinc site
Excerpt: steady-state kinetics on Sb-PDE

No-PDE [2] = system: T2, No-PDE; assay: steady-state kinetics; format: biochemical, Novosphingobium sp. EMRT-2
T2 construct: synthetic gene, recombinant, purified to homogeneity; trinuclear zinc site
Excerpt: steady-state kinetics on No-PDE

Sb-PDE [3] = system: T1, Sb-PDE; assay: UV/vis Michaelis-Menten kinetics; format: biochemical, Sphingobium sp. TCM1
Excerpt: UV/vis Michaelis-Menten kinetics on Sb-PDE

No-PDE [4] = system: T2, No-PDE; assay: UV/vis Michaelis-Menten kinetics; format: biochemical, Novosphingobium sp. EMRT-2
Excerpt: UV/vis Michaelis-Menten kinetics on No-PDE

Row | Compound | Km (Sb-PDE [1]) [µM] | Km (No-PDE [2]) [µM] | Km (Sb-PDE [3]) [µM] | Km (No-PDE [4]) [µM]
1 | O=[N+]([O-])c1ccc(OP(=O)(O)O)cc1 [compound 11, p-nitrophenyl phosphate] | 140 | 1400 |  | 
2 | O=P(O)(O)Oc1ccccc1 [compound 12, phenyl phosphate] | 1400 |  |  | 
3 | O=P(O)(Oc1ccccc1)Oc1ccccc1 [compound 2, diphenyl phosphate] |  |  | 900 | 2300
4 | O=[N+]([O-])c1ccc(OP(=O)(O)Oc2ccc([N+](=O)[O-])cc2)cc1 [compound 1, bis-p-nitrophenyl phosphate] |  |  | 140 | 620
